Experimental data taken from patent publication US10857110B2, “Antibacterial compounds” (CONSEJO NACIONAL DE INVESTIGACIONES CIENTÍFICAS Y TÉCNICAS …, priority 2016, dated 2020).
In brackets after ≈: the same amount, converted by molar mass. Like-named read-outs stand apart in the source and are kept apart here.

Key:
[1] = system: Bordetella bronchiseptica (9.73H+); assay: MIC/MBC antibiotic sensitivity (CLSI); assay type: cell-based; conditions: B. bronchiseptica (9.73H+); for MBC: read-out: MBC; for MIC: read-out: MIC
Procedure, shortened: (§1)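 Compounds tested by two quantitative methods, MIC and MBC, following CLSI criteria, against reference strains and multiresistant cystic fibrosis sputum isolates. Tobramycin, ceftazidime and meropenem included as comparators.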

[2] = system: Burkholderia cenocepacia (CBC 032); assay: MIC/MBC antibiotic sensitivity (CLSI); assay type: cell-based; conditions: for MBC: read-out: MBC
Procedure, shortened: as §1

[3] = system: Burkholderia cenocepacia (CBC 033); assay: MIC/MBC antibiotic sensitivity (CLSI); assay type: cell-based; conditions: for MBC: read-out: MBC
Procedure, shortened: as §1

[4] = system: Burkholderia multivorans (CBC 015); assay: MIC/MBC antibiotic sensitivity (CLSI); assay type: cell-based; conditions: for MBC: read-out: MBC
Procedure, shortened: as §1

[5] = system: Burkholderia multivorans (CBC 016); assay: MIC/MBC antibiotic sensitivity (CLSI); assay type: cell-based; conditions: for MBC: read-out: MBC
Procedure, shortened: as §1

[6] = Cytotoxicity assay, Trypan blue vital staining; assay type: cell-based, human; conditions: human, THP-I monocyte cells; THP-I cells, Trypan Blue; highest drug concentration at which 50% of cells are viable compared with control
Method: (§2) For example, the MIC values for E. coli of the guanidine derivatives disclosed in patent application WO 2004073709 A1 are higher than 1 μg/ml. The guanidine derivatives disclosed by Hensler and colleagues (Hensler, M. E.; Bernstein, G.; Nizet, V.; Nefzi, A., Bioorganic & Medicinal Chemistry Letters 2006, 16, 5073-5079) have MIC values higher than 2.5 μg/ml against E. coli. […] In vitro cytotoxicity assays were performed using the human monocyte cell line THP-I and vital staining with Trypan Blue (3). The IC50 value was defined as the higher drug concentration at which 50% of cells are viable compared with the control. […] The Selectivity Index (SI), defined as the ratio between the IC50 and the MIC for each compound, was calculated. Compound H-BDF has an SI>10, which makes it a good antimicrobial candidate according to the criteria set up by Orme (5).
(§3) For assaying the cytotoxicity of the compounds obtained in Examples 1 and 2, cell viability by vital coloration exclusion with Trypan blue (3). The studies were performed using the monocyte cell line THP-I. The IC50 value was defined as the highest drug concentration at which 50% of the cells are viable as compared with the control.

[7] = system: human monocyte cell line THP-I; assay: Cytotoxicity assay, Trypan blue vital staining; assay type: cell-based; conditions: ratio IC50 / MIC, strain not stated
Method: as §2, §3

[8] = system: Burkholderia seminalis (CBC 040); conditions: reference (1); cited from earlier work
[9] = Burkholderia cenocepacia (CBC 032)
[10] = Burkholderia cenocepacia (CBC 032), read-out: MIC
[11] = Burkholderia cenocepacia (CBC 033)
[12] = Burkholderia cenocepacia (CBC 033), read-out: MIC
[13] = Burkholderia multivorans (CBC 015)
[14] = Burkholderia multivorans (CBC 015), read-out: MIC
[15] = Burkholderia multivorans (CBC 016)
[16] = Burkholderia multivorans (CBC 016), read-out: MIC

| MIC [1] | MIC [2, 10] | MIC [3, 12] | MIC [4, 14] | MIC [5, 16] | melting point | Structure (SMILES) | MBC [1] | MBC [2, 9] | MBC [3, 11] | MBC [4, 13] | MBC [5, 15] | IC50 [6] | also measured |
| --- | --- | --- | --- | --- | --- | --- | --- | --- | --- | --- | --- | --- | --- |
| 0.48 µg/mL (≈ 0.796 µM) | 1.95 µg/mL (≈ 3.23 µM) | 3.9 µg/mL (≈ 6.46 µM) | 1.95 µg/mL (≈ 3.23 µM) | 1.95 µg/mL (≈ 3.23 µM) | 174 °C | O=C(NC(=Nc1c(F)cc(F)cc1Br)Nc1c(F)cc(F)cc1Br)C12CC3CC(CC(C3)C1)C2 [H-BDF, N—(N,N′-bis(2-bromo-4,6-difluorophenyl)carbamimidoyl)adamantane-1-carboxamide] | 1.95 µg/mL (≈ 3.23 µM) | 3.9 µg/mL (≈ 6.46 µM) | 15.6 µg/mL (≈ 25.9 µM) | 3.9 µg/mL (≈ 6.46 µM) | 7.81 µg/mL (≈ 12.9 µM) | 15.2 µg/mL (≈ 25.3 µM) | Selectivity Index (SI) [7]: > 10 |
| 16.6 µg/mL (≈ 25 µM) | 31.2 µg/mL (≈ 47.1 µM) | 133 µg/mL (≈ 200 µM) | 66.4 µg/mL (≈ 100 µM) | 66.4 µg/mL (≈ 100 µM) | 144 °C | O=C(NC(=Nc1c(Br)cc(F)cc1Br)Nc1c(F)cc(F)cc1Br)C12CC3CC(CC(C3)C1)C2 [H-DBF, N—(N-(2-bromo-4,6-difluorophenyl)-N′-(2,6-dibromo-4-fluorophenyl)carbamimidoyl) adamantane-1-carboxamide] | 66.5 µg/mL (≈ 100 µM) | 62.5 µg/mL (≈ 94.1 µM) | > 133 µg/mL | 132 µg/mL (≈ 199 µM) | > 132 µg/mL | > 132 µg/mL | – |
| < 0.48 µg/mL | – | – | – | – | – | C[C@@H](O)[C@H]1C(=O)N2C(C(=O)O)=C(S[C@@H]3CN[C@H](C(=O)N(C)C)C3)[C@H](C)[C@H]12 [Meropenem, meropenem] | < 0.48 µg/mL | – | – | 3.9 µg/mL (≈ 10.2 µM) | – | – | MIC ([2]; Burkholderia cenocepacia, Meropenem, CLSI criteria, B. cenocepacia (CBC 032), read-out: MIC (R/I/S category)): > 16 µg/mL; MIC ([3]; Burkholderia cenocepacia, Meropenem, CLSI criteria, B. cenocepacia (CBC 033), read-out: MIC (R/I/S category)): > 16 µg/mL; MIC ([4]; Burkholderia multivorans, Meropenem, CLSI criteria, B. multivorans (CBC 015), read-out: MIC (R/I/S category)): < 4 µg/mL; MIC ([5]; Burkholderia multivorans, Meropenem, CLSI criteria, B. multivorans (CBC 016), read-out: MIC (R/I/S category)): > 16 µg/mL; resistance of the strain to commercial antibiotics [8]: resistant |
| 62.5 µg/mL (≈ 134 µM) | – | – | – | – | – | NC[C@H]1O[C@H](O[C@H]2[C@H](O)[C@@H](O[C@H]3O[C@H](CO)[C@@H](O)[C@H](N)[C@H]3O)[C@H](N)C[C@@H]2N)[C@H](N)C[C@@H]1O [Tobramucin, tobramycin] | 62.5 µg/mL (≈ 134 µM) | – | – | – | – | – | MIC ([2]; Burkholderia cenocepacia, Tobramucin, CLSI criteria, B. cenocepacia (CBC 032), read-out: MIC (R/I/S category)): > 16 µg/mL; MIC ([3]; Burkholderia cenocepacia, Tobramucin, CLSI criteria, B. cenocepacia (CBC 033), read-out: MIC (R/I/S category)): > 16 µg/mL; MIC ([4]; Burkholderia multivorans, Tobramucin, CLSI criteria, B. multivorans (CBC 015), read-out: MIC (R/I/S category)): > 16 µg/mL; MIC ([5]; Burkholderia multivorans, Tobramucin, CLSI criteria, B. multivorans (CBC 016), read-out: MIC (R/I/S category)): > 16 µg/mL |
